Test results from patent US5273986A, “Cycloalkylthiazoles” (Hoffmann-La Roche Inc., priority 1992, dated 1993).
Read-outs that look alike come from different tables or passages of the source.

Legend:
[1] = target: T1, LTD4 receptor (Cavia porcellus, UniProt Q2NNR5); assay: LTD4 receptor ligand binding assay (inhibition of [3H]LTD4 specific binding, guinea pig lung membranes); settings: 20° C., 30 min
T1 construct: A lung homogenate was prepared from guinea pig lung membranes; from tissue; host or cells: guinea pig lung membranes
T1 sequence (Q2NNR5 1-340): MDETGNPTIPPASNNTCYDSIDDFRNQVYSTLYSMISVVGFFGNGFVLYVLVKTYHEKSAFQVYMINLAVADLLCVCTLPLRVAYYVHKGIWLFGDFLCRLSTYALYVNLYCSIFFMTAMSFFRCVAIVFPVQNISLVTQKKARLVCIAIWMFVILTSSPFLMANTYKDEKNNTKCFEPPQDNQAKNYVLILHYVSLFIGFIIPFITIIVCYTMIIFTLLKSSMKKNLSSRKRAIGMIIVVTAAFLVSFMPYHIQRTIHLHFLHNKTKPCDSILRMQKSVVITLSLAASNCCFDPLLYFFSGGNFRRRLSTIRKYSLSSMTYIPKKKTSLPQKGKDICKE
Procedure: A lung homogenate was prepared from guinea pig lung membranes and was resuspended in buffer containing 10 mM Tris.HCl (pH 7.5) (Hogaboom et al., Hogaboom, G. K., et al: Peptidoleukotrienes: distinct receptors for leukotriene C4 and D4 in the guinea pig lung. Biochem. Biophys. Res. Commun. 116: 1136-1143, 1983). Optimum assay conditions were determined with an assay mixture containing: 10 mM Tris.HCl (pH 7.5); 0.1% bovine serum albumin (BSA); 1 mM glycine; 1 mM cysteine; 3.5 nM [^3 H]LTD4 and the membrane preparation ([…] protein) in a final volume of […]. The incubation was carried out at 20° C. for 30 minutes. At 20° C., binding increased linearly with protein concentration, reached equilibrium in 20 minutes, was saturable, and was reversible upon addition of 1 mM unlabelled LTD4. Separation of bound from free [^3 H]LTD4 as performed by rapid filtration on GF/C glass fiber filters (Whatman International Ltd., Maidstone, England) and washing with two 4-ml aliquots of Tyrode solution (0.9 g/100 ml NaCl; 0.02 g/100 ml KCl; 0.02 g/100 ml CaCl2; 0.01 g/100 ml MgCl2; 0.1 g/100 ml glucose; 0.1 g/100 ml NaHCO3; 0.005 g/100 ml NaH2 PO4) containing 0.1% BSA. Radioactivity remaining on the filters was measured in 10 ml of Aquasol. Specific binding, was defined as that displaced by 1 mM unlabelled LTD4, and was 95% of total binding.
The inhibition of [^3 H]LTD4 specific binding by an antagonist is related to the LTD4 content of that sample by regression analysis from a "standard curve" of the inhibition of [^3 H]LTD4 specific binding by nonlabeled LTD4. The median inhibitory concentration (IC50 value) was determined by linear regression of log concentration-response curves generated by at least 3 concentrations that caused statistically significant inhibition between 10 and 90%. Results are expressed as mean±S. E. M. (standard error of the mean) of n independent experiments (separate receptor batches) conducted in duplicates.

[2] = test system: LTD4-induced bronchoconstriction; assay: Antagonism of LTD4-induced bronchoconstriction in guinea pigs; type: in vivo, guinea pig (male, Hartley strain); settings: for ED50 / inhibition in vivo at 1 mg/kg: Cavia porcellus; for inhibition in vivo at 1 mg/kg: read-out: percent inhibition at 1 mg/kg p.o., LTD4-induced bronchoconstriction (ID50 not determined)
Procedure: Male guinea pigs (Hartley strain, Charles River) weighing 400-600 g were anesthetized with urethane (2 g/kg) intraperitoneally, and a polyethylene cannula was inserted into the jugular vein for intravenous drug administration. Tracheal pressure (cm of H2 O) was recorded from a Statham pressure transducer (P 32 AA). Propranolol was administered 5 minutes prior to challenge with LTD4. Two minutes later spontaneous breathing was arrested with succinylcholine chloride (1.2 mg/kg) administered intravenously, and the animals were ventilated with a Harvard (Model 680) small animal respirator set at 40 breaths/min and a 4.0 cc stroke volume. Control vehicle (DMSO) or test compound was administered through the cannula into the jugular vein 1 minute before the animals were challenged with a maximum constrictory dose of LTD4 ([…] I.V.) given intravenously. The change in tracheal pressure was averaged for control and drug-treated animals and percent inhibition was calculated. For determination of oral activity, animals were dosed with test compound or vehicle (PEG400) two hours prior to challenge with LTD4 ([…], i.v.).
The relative potency of test compounds administered by the intravenous and oral route was determined by administering increasing doses of test compound at a fixed pretreatment time. The median inhibitory dose (ID50 value) was determined by linear regression of log dose-responsecurves generated by at least 3 doses that caused statistically significant inhibition between 10 and 90%. The correlation coefficient for the regression line was always greater than 0.95. For determination of the time-course of inhibition for various compounds, the time between administration of compound and challenge with LTD4 was varied. Durations of action were defined as the time for inhibitory activity to decrease to 50%.

[3] = iv, 1 min, I.V., compound 1 minute before LTD4 challenge, read-out: ID50 I.V., LTD4-induced bronchoconstriction
[4] = po, 2 h, p.o., compound two hours prior to LTD4 challenge, read-out: ID50 p.o., LTD4-induced bronchoconstriction
[5] = po, 2 h, p.o., 1 mg/kg, compound two hours prior to LTD4 challenge
[6] = I.V., 1 mg/kg, compound 1 minute before LTD4 challenge

SMILES	ED50 [2, 3] [mg/kg]	ED50 [2, 4] [mg/kg]	also measured
O=C(Cc1ccccc1C(=O)O)Nc1cccc(/C=C/c2nc(C3CC3)cs2)c1 [Example 2, (E)-2-[2-[3-[2-[4-(Cyclopropyl)-2-thiazolyl]ethenyl]phenylamino]-2-oxoethyl]benzoic acid]	0.01	0.22	IC50 [1]: 3 nM
O=C(Cc1ccccc1C(=O)O)Nc1cccc(/C=C/c2nc(C3CCCCC3)cs2)c1 [Example 10, (E)-2-[2-[3-[2-[4-(Cyclohexyl)-2-thiazolyl]ethenyl]phenylamino]-2-oxoethyl]benzoic acid]	0.02	0.43	
O=C(Cc1c(F)cccc1C(=O)O)Nc1cccc(/C=C/c2nc(C3CCC3)cs2)c1 [Example 25, (E)-3-fluoro-2-[2-[3-[2-[4-(cyclobutyl)-2-thiazolyl]ethenyl]phenylamino]-2-oxoethyl]benzoic acid]	0.03		inhibition in vivo at 1 mg/kg [2, 5]: 36 ± 6%
O=C(NCc1ccccc1C(=O)O)c1cccc(/C=C/c2nc(C3CCC3)cs2)c1 [Example 22c, (E)-2-[[[[3-[2-(4-Cyclobutyl-2-thiazolyl)ethenyl]phenyl]carbonyl]amino]methyl]benzoic acid]	0.04	0.1	
O=C(Cc1ccccc1C(=O)O)Nc1cccc(/C=C/c2nc(C3CCCC3)cs2)c1 [Example 9, (E)-2-[2-[3-[2-[4-(Cyclopentyl)-2-thiazolyl]ethenyl]phenylamino]-2-oxoethyl]benzoic acid]	0.005	0.4	
Cc1ccc(NC(=O)Cc2ccccc2C(=O)O)cc1/C=C/c1nc(C(C)C)cs1 [Example 16g, (E)-2-[2-[4-Methyl-3-[2-[4-(1-methylethyl)-2-thiazolyl]ethenyl]phenylamino]-2-oxoethyl]benzoic acid]	0.2		inhibition in vivo at 1 mg/kg [2, 5]: 24 ± 8%
O=C(Cc1ccccc1C(=O)O)Nc1cccc(/C=C/c2nc(C3CCCCCC3)cs2)c1 [Example 11i, (E)-2-[2-[3-[2-[4-(Cycloheptyl)-2-thiazolyl]ethenyl]phenylamino]-2-oxoethyl]benzoic acid]	0.02		inhibition in vivo at 1 mg/kg [2, 5]: 42 ± 10%
O=C(CCc1ccccc1C(=O)O)Nc1cccc(/C=C/c2nc(C3CCC3)cs2)c1 [Example 21b, (E)-2-[3-[3-[2-[4-(Cyclobutyl)-2-thiazolyl]ethenyl]phenylamino]-3-oxopropyl]benzoic acid]	0.02	8.2	
O=C(Cc1ccccc1C(=O)O)Nc1cccc(/C=C/c2nc(C3CCCCCCC3)cs2)c1 [Example 12d, (E)-2-[2-[3-[2-[4-(Cyclooctyl)-2-thiazolyl]ethenyl]phenylamino]-2-oxoethyl]benzoic acid]	0.15		inhibition in vivo at 1 mg/kg [2, 5]: 24 ± 4%
COc1ccc(CC(=O)Nc2cccc(/C=C/c3nc(C4CCC4)cs3)c2)c(C(=O)O)c1 [Example 26, (E)-5-Methoxy-2-[2-[3-[2-[4-(cyclobutyl)-2-thiazolyl]ethenyl]phenylamino]-2-oxoethyl]benzoic acid]	0.03	0.2	
O=C(Cc1ccc(C(=O)O)cc1)Nc1cccc(/C=C/c2nc(C3CCC3)cs2)c1 [Example 8b, (E)-4-[2-[3-[2-[4-(Cyclobutyl)-2-thiazolyl]ethenyl]phenylamino]-2-oxoethyl]benzoic acid]			percent inhibition at 1 mg/kg I.V., LTD4-induced bronchoconstriction (ID50 not determined) [2, 6]: 50 ± 6%
O=C(Cc1ccccc1C(=O)O)Nc1cccc(/C=C/c2csc(C3CCC3)n2)c1 [Example 20h, (E)-2-[2-[3-[2-(2-Cyclobutyl-4-thiazolyl)ethenyl]phenylamino]-2-oxoethyl]benzoic acid]	0.04		inhibition in vivo at 1 mg/kg [2, 5]: 48 ± 6%
O=C(Cc1ccc(F)cc1C(=O)O)Nc1cccc(/C=C/c2nc(C3CCC3)cs2)c1 [Example 27, (E)-5-fluoro-2-[2-[3-[2-[4-(cyclobutyl)-2-thiazolyl]ethenyl]phenylamino]-2-oxoethyl]benzoic acid]	0.2		
O=C(Cc1ccccc1CO)Nc1cccc(/C=C/c2nc(C3CCC3)cs2)c1 [Example 6, (E)-2-[2-[3-[2-[4-(Cyclobutyl)-2-thiazolyl]ethenyl]phenylamino]-2-oxoethyl]benzyl Alcohol]	0.1	0.3	
O=C(Cc1ccc(Cl)cc1C(=O)O)Nc1cccc(/C=C/c2nc(C3CCC3)cs2)c1 [Example 24, (E)-5-chloro-2-[2-[3-[2-[4-(cyclobutyl)-2-thiazolyl]ethenyl]phenylamino]-2-oxoethyl]benzoic acid]	0.01	0.2	
O=C(Cc1ccc([N+](=O)[O-])cc1C(=O)O)Nc1cccc(/C=C/c2nc(C3CCC3)cs2)c1 [Example 23, (E)-5-Nitro-2-[2-[3-[2-[4-(cyclobutyl)-2-thiazolyl]ethenyl]phenylamino]-2-oxoethyl]benzoic acid]			percent inhibition at 1 mg/kg I.V., LTD4-induced bronchoconstriction (ID50 not determined) [2, 6]: 36 ± 6%
O=C(Cc1cccc(C(=O)O)c1)Nc1cccc(/C=C/c2nc(C3CCC3)cs2)c1 [Example 7b, (E)-3-[2-[3-[2-[4-(Cyclobutyl)-2-thiazolyl]ethenyl]phenylamino]-2-oxoethyl]benzoic acid]	0.3		
COC(=O)c1ccccc1CC(=O)Nc1cccc(/C=C/c2nc(C3CCC3)cs2)c1 [Example 4, (E)-2-[2-[3-[2-[4-(Cyclobutyl)-2-thiazolyl]ethenyl]phenylamino]-2-oxoethyl]benzoic Acid Methyl Ester]	0.3	0.3	
O=C(Cc1ccccc1C(=O)O)Nc1cccc(/C=C/c2nc(C(=O)O)cs2)c1 [Example 19]			percent inhibition at 1 mg/kg, previous test ([2]; 1 mg/kg, previous test (footnote ** to the I.V. value)): 0 ± 0%; percent inhibition at 1 mg/kg I.V., LTD4-induced bronchoconstriction (ID50 not determined) [2, 6]: 12 ± 4%
CCOC(=O)c1csc(/C=C/c2cccc(NC(=O)Cc3ccccc3C(=O)O)c2)n1 [Example 18c, (E)-2-[2-[3-[2-[4-(Ethoxycarbonyl)-2-thiazolyl]ethenyl]phenylamino]-2-oxoethyl]benzoic acid]	0.2		inhibition in vivo at 1 mg/kg [2, 5]: 13 ± 3%
COc1cc(C(=O)O)ccc1CC(=O)Nc1cccc(/C=C/c2nc(C3CCC3)cs2)c1 [Example 28b, (E)-4-[2-[3-[2-[4-(cyclobutyl)-2-thiazolyl]ethenyl]phenylamino]-2-oxoethyl]-3-methoxybenzoic acid]	0.4		
CC(=O)Oc1ccc(CC(=O)Nc2cccc(/C=C/c3nc(C4CCC4)cs3)c2)c(C(=O)O)c1 [Example 31, (E)-5-Acetoxy-2-[2-[3-[2-[4-(cyclobutyl)-2-thiazolyl]ethenyl]phenylamino]-2-oxoethyl]benzoic Acid]	0.004	0.3	
CN(C)C(=O)c1ccccc1CC(=O)Nc1cccc(/C=C/c2nc(C3CCC3)cs2)c1 [Example 5, (E)-2-[2-[3-[2-[4-(Cyclobutyl)-2-thiazolyl]ethenyl]phenylamino]-2-oxoethyl]-N,N-dimethylbenzamide]	0.005	0.6	
